Assays:
[1] = tested on: EAE mice
Procedure: Animals. C57BL/6 female mice (8 weeks old) were purchased from Harlan Laboratories and were maintained in the lab animal housing facilities. These studies were performed in compliance with the Purdue Animal Care and Use Committee protocol guidelines at Purdue University, West Lafayette, Ind.
Induction of EAE. Nine-twelve week old mice were subcutaneously injected with 0.1 mL MOG35-55/CFA emulsion (EK-0115, Hooke Laboratories) in the neck and lower back (total of 0.2 mL). Within two hours of the injection, 0.1 mL pertussis toxin (EK-0115, Hooke Laboratories) was administered intraperitoneally. A second dose of pertussis toxin of the same volume was given 22-26 hours later. The behavioral performance was assessed using a well established 5-point behavioral scoring system (Kalyvas and David, 2004). The animals were placed on a metal grate and their walking ability was recorded. The scoring system is as follows: 0—no deficit; 1—limp tail only; 2—hind limb paresis but without leg dragging; 3—partial hind limb weakness with one or both legs dragging; 4—complete hind limb paralysis; 5—moribund, paralysis in hind limbs and possibly in one forelimb. The animals were monitored and assessed three times during the first week and then assessed daily for the remainder of the study.
(§1) Hydralazine Treatment. A solution of hydralazine hydrochloride (Sigma) was prepared with phosphate buffered saline. The solution was then sterilized through a filter and stored at 4° C. Hydralazine (1 mg/kg) was administered through daily with intraperitoneal injections from the day the MOG/CFA emulsion was administered until the end of the 30 day study period. For sham treatments, mice were administered saline intraperitoneally rather than the hydralazine solution. Blood pressures were monitored using a CODA 2 system (Kent Scientific Corp.).
(§2) One group of EAE mice are injected with hydralazine (EAE+HZ) at the dose of 1 mg/kg daily starting from the day of induction (n=11). In the sham-treated group (EAE), an equal amount of saline is injected daily (n=12). Both hydralazine and saline (sham) treatments are carried out for 30 days post induction. The behavioral scores of the two groups of mice are recorded daily (FIG. 2 panel A).
Phenelzine is administered via intraperitoneal (IP) injections at 15 mg/kg for 30 days. […] The highest score for each mouse was taken and averaged within each group. All data are expressed as mean±SEM.

[2] = tested on: acrolein-lysine adducts; details: EAE mice treated with hydralazine, n=3, mean±SEM; EAE 20.27±3.0, control 12.30±1.3
Procedure: Acrolein-lysine adducts in the tissue homogenate was measured using a Bio-Dot SF Microfiltration Apparatus (Bio-Rad, Hercules, Calif., USA), as previously described (Luo et al., 2005a; Shao et al., 2006; Hamann et al., 2008a). Briefly, the tissue was homogenized with TritonX-100 (3%), and the following anti-proteases were added: 2 mmol/L pefabloc, 15 lmol/L pepstatin A, 20 µg/mL aprotinin, and 25 µg/mL leupeptin. The solution was centrifuged to pellet large pieces of tissue and the supernatant was stored at −80° C. until transferred to a nitrocellulose membrane. The membrane was blocked for 1 h in blocking buffer (0.2% casein and 0.1% Tween 20 in PBS) and transferred to 1:1000 polyclonal rabbit anti-acrolein (in blocking buffer with 2% goat serum and 0.025% sodium azide) (Novus Biologicals) for 18 h at 4° C. Next, the membrane was washed in blocking buffer and then transferred to 1:10000 alkaline phosphatase conjugated goat anti-rabbit IgG. […]
The optical density of bands was evaluated using Image J (NIH) and statistical comparison was performed with SAS 9.2 (SAS institute). […]
The acrolein-lysine adducts in control (n=3), EAE mice (n=3) and EAE+HZ mice (n=3) spinal cord are detected using Bio-Dot SF Microfiltration Apparatus. […] Band intensities are analyzed using ImageJ (NIH) and are expressed in arbitrary units. […] All data are expressed as mean±SEM.

[3] = tested on: EAE mice spinal cord; details: thoracic spinal cord cross section, n=3, sham treated 25.58±3.8%
Procedure: Mice were perfusion fixed with 4% paraformaldehyde and the vertebral columns were removed and fixed in 4% paraformaldehyde overnight. Spinal cord tissues were extracted out of the vertebral column, cut into 1 cm pieces, and further fixed in 4% paraformaldhyde for 24-48 hours. The samples were cryoprotected by incubating for 24 h in a 10% sucrose solution, followed by 24 hours in a 20% sucrose solution. The samples were then imbedded in Tissue-Tek OCT compound (VWR, Batavia, Ill.) and frozen in liquid nitrogen. 15 μm sections were cut using a cryostat and mounted on gelatin coated slides. Sections were incubated with 5% goat serum and 0.5% Triton-X100 in phosphate buffered saline (PBS) for 30 minutes as blocking agents. […] All sections were observed by fluorescence microscopy.
For quantification, the thoracic sections were imaged, and Adobe Photoshop was used to outline the demyelination area and total white matter area. Pixel area for each sample was calculated and the percentage of demyelination was obtained by dividing the total demyelinated area by total white matter area. […] For each of the 3 groups, (control, EAE, EAE+HZ), 3 animals were used for immunofluorescence quantification.
Total white matter area and lesion areas are manually outlined and the pixel area is calculated. Percent demyelination is calculated by dividing total demyelinated area by total white matter area.

[4] = mouse, in vivo
Procedure: as §1, §2

Row | Compound | behavioral scores evaluated daily ([1]; 5-point scale, phenelzine IP 15 mg/kg for 30 days, vs sham) | mean behavioral scores (highest score for each mouse averaged) ([1]; phenelzine IP 15 mg/kg for 30 days, vs EAE, p<0.005) | time to EAE symptom onset ([1]; phenelzine IP 15 mg/kg for 30 days, vs sham, p<0.005) | acrolein-lysine adduct level in EAE mice spinal cord [2] | average onset of symptoms ([1]; 1 mg/kg daily i.p. from day of induction, n=11, mean±SEM, sham 15.42±0.4) | average behavioral score (highest score for each mouse averaged within group) ([1]; 5-point scale, 1 mg/kg daily i.p. from day of induction, mean±SEM, EAE group 3.33±0.3) | percent demyelination in white matter [3] | average systolic pressure of EAE mice [4] | average systolic pressure of normal mice [4]
1 | NNCCc1ccccc1 [phenelzine] | significant differences for all comparisons following day 14 | mean behavioral scores are significantly increased in EAE mice compared to the phenelzine treated (EAE+PLZ) group | significant delay in disease progression | – | – | – | – | – | –
2 | NNc1nncc2ccccc12 [hydralazine] | – | – | – | 15.14±1.6 a.u. | 21.73±2.1 days post induction | 1.72±0.4 | 5.10±4.2% | 134.8±4.5 mmHg | 118.5±6.4 mmHg

Source: patent publication US9517237B2, “Compounds and methods for treating multiple sclerosis” (NEURO VIGOR, LLC, priority 2010, dated 2016)
